Patent publication US8129366B2, “VLA-4 inhibitory drug” (Daiichi Sankyo Company, Limited, priority 2005, dated 2012)
Values after ≈ are worked out from the molar mass of the structure shown.

Experiments:
hα4 and β1 integrins = target: T1, hα4 and β1 integrins (Homo sapiens, UniProt P05556+P13612); assay: In vitro inhibition of binding between CHO cells expressing hα4 and β1 integrins and Eu3+-hVCAM-1 D1D7-IgG; settings: for Ki: CHO cells expressing hα4 and β1 integrins, Eu3+-hVCAM-1 D1D7-IgG ligand, without HSA; for IC50: in the presence of 3% human serum albumin (HSA final concentration 3%)
T1 construct: expressed in transfected cells; host or cells: CHO cells
Method in brief: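 Bound europium-labelled VCAM-1 D1D7-IgG on α4β1-expressing CHO cells was measured by time-resolved fluorescence after washing at 4 °C. Ligand (2 nM working dilution) and test compound, with or without 3% final HSA, were co-incubated for 1 h at room temperature in Mn²⁺-containing HEPES buffer, pH 7.5. IC50 came from % binding inhibition; Ki was calculated from ligand concentration and Scatchard Kd.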

[1] = Solubility test in first and second liquid of the Japanese Pharmacopoeia; settings: Solubility
Procedure: The solubilities of the substance under test in the first liquid (JP1, pH=1.2) of the Japanese Pharmacopoeia and the second liquid (JP2, pH=6.8) of the Japanese Pharmacopoeia, were evaluated.

[2] = first liquid of the Japanese Pharmacopoeia (JP1), pH 1.2, simulated gastric fluid, First liquid of Japanese Pharmacopoeia (μg/mL), JP1, pH=1.2
[3] = second liquid of the Japanese Pharmacopoeia (JP2), pH 6.8, aqueous buffer, Second liquid of Japanese Pharmacopoeia (μg/mL), JP2, pH=6.8

T1 sequence (P13612 34-1032): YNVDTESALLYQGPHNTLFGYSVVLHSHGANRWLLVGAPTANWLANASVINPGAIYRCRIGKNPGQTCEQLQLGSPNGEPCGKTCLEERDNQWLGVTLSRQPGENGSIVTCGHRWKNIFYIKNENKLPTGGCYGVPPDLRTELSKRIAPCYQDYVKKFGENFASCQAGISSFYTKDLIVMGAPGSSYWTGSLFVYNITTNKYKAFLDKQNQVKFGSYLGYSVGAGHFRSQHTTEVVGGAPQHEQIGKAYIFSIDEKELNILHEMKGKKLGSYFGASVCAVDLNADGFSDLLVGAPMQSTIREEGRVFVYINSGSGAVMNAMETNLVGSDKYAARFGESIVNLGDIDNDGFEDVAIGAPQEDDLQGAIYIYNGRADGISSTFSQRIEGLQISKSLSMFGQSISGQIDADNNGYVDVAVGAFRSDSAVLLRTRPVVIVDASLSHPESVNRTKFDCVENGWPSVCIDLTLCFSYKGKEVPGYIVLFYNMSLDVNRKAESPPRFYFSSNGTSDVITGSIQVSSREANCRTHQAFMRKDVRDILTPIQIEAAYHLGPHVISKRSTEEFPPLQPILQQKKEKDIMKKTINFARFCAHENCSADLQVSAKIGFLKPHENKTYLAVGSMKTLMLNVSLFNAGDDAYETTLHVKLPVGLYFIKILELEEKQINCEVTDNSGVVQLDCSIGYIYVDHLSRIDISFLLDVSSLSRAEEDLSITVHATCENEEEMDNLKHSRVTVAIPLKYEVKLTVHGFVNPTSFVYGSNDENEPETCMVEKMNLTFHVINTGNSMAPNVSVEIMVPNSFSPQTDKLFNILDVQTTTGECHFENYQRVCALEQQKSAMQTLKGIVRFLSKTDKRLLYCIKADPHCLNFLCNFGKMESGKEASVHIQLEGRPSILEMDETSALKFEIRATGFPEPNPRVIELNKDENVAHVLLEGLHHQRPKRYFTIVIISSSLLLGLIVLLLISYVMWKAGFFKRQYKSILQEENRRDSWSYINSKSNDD
T1 sequence (P05556 21-798): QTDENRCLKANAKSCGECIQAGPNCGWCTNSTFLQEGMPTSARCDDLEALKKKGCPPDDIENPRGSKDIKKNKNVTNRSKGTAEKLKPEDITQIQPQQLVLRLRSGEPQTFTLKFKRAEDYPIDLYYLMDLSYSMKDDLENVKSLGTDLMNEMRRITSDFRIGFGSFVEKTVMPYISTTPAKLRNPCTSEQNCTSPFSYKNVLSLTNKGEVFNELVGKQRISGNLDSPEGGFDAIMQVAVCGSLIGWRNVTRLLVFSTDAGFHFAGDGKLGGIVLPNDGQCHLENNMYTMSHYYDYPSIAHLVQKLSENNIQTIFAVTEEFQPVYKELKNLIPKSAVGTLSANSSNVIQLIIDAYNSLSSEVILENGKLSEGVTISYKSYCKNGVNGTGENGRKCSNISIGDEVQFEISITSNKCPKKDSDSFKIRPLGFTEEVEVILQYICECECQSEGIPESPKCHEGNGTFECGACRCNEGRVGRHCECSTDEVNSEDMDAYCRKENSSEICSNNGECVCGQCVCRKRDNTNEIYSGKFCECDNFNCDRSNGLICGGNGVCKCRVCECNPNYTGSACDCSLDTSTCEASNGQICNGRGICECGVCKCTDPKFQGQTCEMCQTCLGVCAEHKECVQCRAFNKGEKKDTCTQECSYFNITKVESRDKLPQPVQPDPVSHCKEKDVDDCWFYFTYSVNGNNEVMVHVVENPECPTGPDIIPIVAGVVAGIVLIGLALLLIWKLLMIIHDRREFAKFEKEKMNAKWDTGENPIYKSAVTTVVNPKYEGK

SMILES | Ki (hα4 and β1 integrins) [nM] | IC50 (hα4 and β1 integrins) [nM] | solubility [1, 2] [µg/mL] | solubility [1, 3] [µg/mL]
CO[C@H]1CN([C@H]2C[C@@H](CO[C@H]3CC[C@H](C(=O)O)CC3)N(C(=O)Cc3cc(Cl)c(NC(=O)c4coc5ccccc45)cc3F)C2)C[C@@H]1OC [Example 53, Trans-4-[1-[[4-[(benzo[b]furan-3-ylcarbonyl)amino]-5-chloro-2-fluorophenyl]acetyl]-(4S)-[(3S,4S)-dimethoxypyrrolidin-1-yl]-(2S)-pyrrolidinylmethoxy]cyclohexanecarboxylic acid] | 2 | 11 | 1000 (≈ 1460 µM) | 1000 (≈ 1460 µM)
CCO[C@H]1CN([C@H]2C[C@@H](CO[C@H]3CC[C@H](C(=O)O)CC3)N(C(=O)Cc3cc(Cl)c(NC(=O)c4cn(C)c5ccccc45)cc3Cl)C2)C[C@H]1OCC [Example 63, Trans-4-[1-[[2,5-dichloro-4-[(1-methyl-1H-indol-3-ylcarbonyl)amino]phenyl]acetyl]-(4S)-(3,4-cis-diethoxypyrrolidin-1-yl)-(2S)-pyrrolidinylmethoxy]cyclohexanecarboxylic acid] | 4.7 | 23 | 1000 (≈ 1340 µM) | 1000 (≈ 1340 µM)
O=C(Nc1cc(Cl)c(CC(=O)N2C[C@@H](N3C[C@@H]4OCO[C@@H]4C3)C[C@H]2CO[C@H]2CC[C@H](C(=O)O)CC2)cc1Cl)c1coc2ccccc12 [Example 73, Trans-4-[1-[[4-[(benzo[b]furan-3-ylcarbonyl)amino]-2,5-dichlorophenyl]acetyl]-(4S)-[(3a,6a-cis)-tetrahydro[1,3]dioxolo[4,5-c]pyrrol-5-yl]-(2S)-pyrrolidinylmethoxy]cyclohexanecarboxylic acid] | 1.9 | 22 | 1000 (≈ 1460 µM) | 1000 (≈ 1460 µM)
Cn1cc(C(=O)Nc2cc(F)c(CC(=O)N3C[C@@H](N4CCOCC4)C[C@H]3CO[C@H]3CC[C@H](C(=O)O)CC3)cc2Cl)c2ccccc21 [Example 78, Trans-4-[1-[[5-chloro-2-fluoro-4-[(1-methyl-1H-indol-3-ylcarbonyl)amino]phenyl]acetyl]-(4S)-(morpholin-4-yl)-(2S)-pyrrolidinylmethoxy]cyclohexanecarboxylic acid] | 1.5 | 5.2 | > 2000 | > 2000
C[C@@H]1CN([C@H]2C[C@@H](CO[C@H]3CC[C@H](C(=O)O)CC3)N(C(=O)Cc3ccc(NC(=O)c4nccc5ccccc45)c(Cl)c3)C2)C[C@H](C)O1 [Example 86, Trans-4-[1-[[3-chloro-4-[(isoquinolin-1-ylcarbonyl)amino]phenyl]acetyl]-(4S)-(cis-2,6-dimethylmorpholin-4-yl)-(2S)-pyrrolidinylmethoxy]cyclohexanecarboxylic acid] | 4.5 | 27 | 1300 (≈ 1960 µM) | 1200 (≈ 1810 µM)
C[C@@H]1CN([C@H]2C[C@@H](CO[C@H]3CC[C@H](C(=O)O)CC3)N(C(=O)Cc3ccc(NC(=O)c4coc5ccccc45)c(Cl)c3)C2)C[C@H](C)O1 [Example 87, Trans-4-[1-[[4-[(benzo[b]furan-3-ylcarbonyl)amino]-3-chlorophenyl]acetyl]-(4S)-(cis-2,6-dimethylmorpholin-4-yl)-(2S)-pyrrolidinylmethoxy]cyclohexanecarboxylic acid] | 0.95 | 8.1 | 1200 (≈ 1840 µM) | 1200 (≈ 1840 µM)
C[C@@H]1CN([C@H]2C[C@@H](CO[C@H]3CC[C@H](C(=O)O)CC3)N(C(=O)Cc3ccc(NC(=O)c4nn(C)c5ccccc45)c(Cl)c3)C2)C[C@H](C)O1 [Example 88, Trans-4-[1-[[3-chloro-4-[(1-methyl-1H-indazol-3-ylcarbonyl)amino]phenyl]acetyl]-(4S)-(cis-2,6-dimethylmorpholin-4-yl)-(2S)-pyrrolidinylmethoxy]cyclohexanecarboxylic acid] | 1.5 | 9 | 1100 (≈ 1650 µM) | 1300 (≈ 1950 µM)
COCC1CCN([C@H]2C[C@@H](CO[C@H]3CC[C@H](C(=O)O)CC3)N(C(=O)Cc3cc(Cl)c(NC(=O)c4csc5ccccc45)cc3F)C2)CC1 [Example 99, Trans-4-[1-[[4-[(benzo[b]thiophen-3-ylcarbonyl)amino]-5-chloro-2-fluorophenyl]acetyl]-(4S)-[(4-methoxymethyl)piperidin-1-yl]-(2S)-pyrrolidinylmethoxy]cyclohexanecarboxylic acid] | 0.34 | 3.8 | > 2000 | 1020 (≈ 1450 µM)
COC1CCN([C@H]2C[C@@H](CO[C@H]3CC[C@H](C(=O)O)CC3)N(C(=O)Cc3cc(Cl)c(NC(=O)c4csc5ccccc45)cc3F)C2)CC1 [Example 103, Trans-4-[1-[[4-[(benzo[b]thiophen-3-ylcarbonyl)amino]-5-chloro-2-fluorophenyl]acetyl]-(4S)-(4-methoxypiperidin-1-yl)-(2S)-pyrrolidinylmethoxy]cyclohexanecarboxylic acid] | 0.32 | 2.2 | > 2000 | 1360 (≈ 1990 µM)
CN(C)C(=O)C1CCN([C@H]2C[C@@H](CO[C@H]3CC[C@H](C(=O)O)CC3)N(C(=O)Cc3cc(Cl)c(NC(=O)c4coc5ccccc45)cc3Cl)C2)CC1 [Example 107, Trans-4-[1-[[4-[(benzo[b]furan-3-ylcarbonyl)amino]-2,5-dichlorophenyl]acetyl]-(4S)-[4-(dimethylcarbamoyl)piperidin-1-yl]-(2S)-pyrrolidinylmethoxy]cyclohexanecarboxylic acid] | 1.8 | 7.6 | 1200 (≈ 1650 µM) | 1200 (≈ 1650 µM)
O=C(Nc1cc(F)c(CC(=O)N2C[C@@H](N3CCC(N4CCOCC4)CC3)C[C@H]2CO[C@H]2CC[C@H](C(=O)O)CC2)cc1Cl)c1csc2ccccc12 [Example 110, Trans-4-[1-[[4-[(benzo[b]thiophen-3-ylcarbonyl)amino]-5-chloro-2-fluorophenyl]acetyl]-(4S)-[4-(morpholin-4-yl)piperidin-1-yl]-(2S)-pyrrolidinylmethoxy]cyclohexanecarboxylic acid] | 0.25 | 30 | > 2000 | > 2000

Continued, values first:

Ki (hα4 and β1 integrins) [nM] | IC50 (hα4 and β1 integrins) [nM] | solubility [1, 2] [µg/mL] | solubility [1, 3] [µg/mL] | SMILES
3.4 | 25 | 1000 (≈ 1420 µM) | 1000 (≈ 1420 µM) | CO[C@H]1CN([C@H]2C[C@@H](CO[C@H]3CC[C@H](C(=O)O)CC3)N(C(=O)Cc3cc(Cl)c(NC(=O)c4coc5ccccc45)cc3Cl)C2)C[C@@H]1OC [Example 54, Trans-4-[1-[[4-[(benzo[b]furan-3-ylcarbonyl)amino]-2,5-dichlorophenyl]acetyl]-(4S)-[(3S,4S)-dimethoxypyrrolidin-1-yl]-(2S)-pyrrolidinylmethoxy]cyclohexanecarboxylic acid]
7.9 | 18 | 1000 (≈ 1420 µM) | 1000 (≈ 1420 µM) | CO[C@H]1CN([C@H]2C[C@@H](CO[C@H]3CC[C@H](C(=O)O)CC3)N(C(=O)Cc3cc(Cl)c(NC(=O)c4coc5ccccc45)cc3Cl)C2)C[C@H]1OC [Example 60, Trans-4-[1-[[4-[(benzo[b]furan-3-ylcarbonyl)amino]-2,5-dichlorophenyl]acetyl]-(4S)-(cis-3,4-dimethoxypyrrolidin-1-yl)-(2S)-pyrrolidinylmethoxy]cyclohexanecarboxylic acid]
0.42 | 14 | > 2000 | > 2000 | CC(=O)N[C@H]1CCN([C@H]2C[C@@H](CO[C@H]3CC[C@H](C(=O)O)CC3)N(C(=O)Cc3cc(Cl)c(NC(=O)c4csc5ccccc45)cc3F)C2)C1 [Example 66, Trans-4-[1-[[4-[(benzo[b]thiophen-3-ylcarbonyl)amino]-5-chloro-2-fluorophenyl]acetyl]-(4S)-[(3S)-acetamidopyrrolidin-1-yl]-(2S)-pyrrolidinylmethoxy]cyclohexanecarboxylic acid]
1.5 | 8.8 | 1200 (≈ 1790 µM) | 1300 (≈ 1940 µM) | O=C(Nc1cc(F)c(CC(=O)N2C[C@@H](N3C[C@@H]4OCO[C@@H]4C3)C[C@H]2CO[C@H]2CC[C@H](C(=O)O)CC2)cc1Cl)c1coc2ccccc12 [Example 74, Trans-4-[1-[[4-[(benzo[b]furan-3-ylcarbonyl)amino]-5-chloro-2-fluorophenyl]acetyl]-(4S)-[(3a,6a-cis)-tetrahydro[1,3]dioxolo[4,5-c]pyrrol-5-yl]-(2S)-pyrrolidinylmethoxy]cyclohexanecarboxylic acid]
1.2 | 9.2 | > 2000 | 1580 (≈ 2310 µM) | CO[C@@H]1CCCN([C@H]2C[C@@H](CO[C@H]3CC[C@H](C(=O)O)CC3)N(C(=O)Cc3cc(Cl)c(NC(=O)c4csc5ccccc45)cc3F)C2)C1 [Example 106, Trans-4-[1-[[4-[(benzo[b]thiophen-3-ylcarbonyl)amino]-5-chloro-2-fluorophenyl]acetyl]-(4S)-[(3R)-methoxypiperidin-1-yl]-(2S)-pyrrolidinylmethoxy]cyclohexanecarboxylic acid]
2.8 | 9.5 | 1000 (≈ 1400 µM) | 1000 (≈ 1400 µM) | CC(C)N1CCN([C@H]2C[C@@H](CO[C@H]3CC[C@H](C(=O)O)CC3)N(C(=O)Cc3cc(Cl)c(NC(=O)c4cn(C)c5ccccc45)cc3Cl)C2)CC1 [Example 113, Trans-4-[1-[[2,5-dichloro-4-[(1-methyl-1H-indol-3-ylcarbonyl)amino]phenyl]acetyl]-(4S)-(4-isopropylpiperazin-1-yl)-(2S)-pyrrolidinylmethoxy]cyclohexanecarboxylic acid]
